Like-named read-outs stand apart in the source and are kept apart here.
Assays:
Normal Rat [1] = assay: Measurement of urine excretion using a nitrosated diuretic compound, intravenous; format: in vivo, Male Wistar rats; settings: for Total Urine Volume (ml) at: 0.5 h / Total Urine Volume (ml) at: 1 h / Total Urine Volume (ml) at: 2 h: normal rat, intravenous slow bolus, 3 mg/kg (Example 12: 3 mg/kg equivalent), n = 6
Normal Rat [2] = format: in vivo, Male Wistar rats; settings: intravenous slow bolus, 1 mg/kg (each compound), n = 3

Structure (SMILES): NS(=O)(=O)c1cc(C(=O)OCC(=O)N[C@@H](CCO[N+](=O)[O-])CO[N+](=O)[O-])c(NCc2ccco2)cc1Cl
- melting point: 115 to 118 °C

Structure (SMILES): NS(=O)(=O)c1cc(C(=O)NCCOC(=O)[C@@H]2CCCN2[15N]=O)c(NCc2ccco2)cc1Cl
- melting point: 51 to 61 °C

Structure (SMILES): NS(=O)(=O)c1cc(C(=O)OCC(=O)N2CCC(CCO[N+](=O)[O-])CC2)c(NCc2ccco2)cc1Cl
- melting point: 170 °C

Structure (SMILES): NS(=O)(=O)c1cc(C(=O)OCC(=O)NCCO[N+](=O)[O-])c(NCc2ccco2)cc1Cl
- melting point: 135 °C

Structure (SMILES): C[C@@H](CNC(=O)COC(=O)c1cc(S(N)(=O)=O)c(Cl)cc1NCc1ccco1)O[N+](=O)[O-]
- melting point: 125 to 138 °C (dec.)

Structure (SMILES): NS(=O)(=O)c1cc(C(=O)OC[C@H]2CCCN2N=O)c(NCc2ccco2)cc1Cl
- melting point: 79 to 81 °C

Structure (SMILES): CN(CCO[N+](=O)[O-])C(=O)COC(=O)c1cc(S(N)(=O)=O)c(Cl)cc1NCc1ccco1
- melting point: 70 to 72 °C

Structure (SMILES): NS(=O)(=O)c1cc(C(=O)O)c(NCc2ccco2)cc1Cl [Furosemide, furosemide, reference compound]
- Total Urine Volume (ml) at: 0.5 h (Normal Rat [1]): 6.7 ± 1.2 mL
- Total Urine Volume (ml) at: 1 h (Normal Rat [1]): 8.8 ± 1.2 mL
- Total Urine Volume (ml) at: 2 h (Normal Rat [1]): 11.0 ± 1.3 mL
- Total Urine Volume (ml) at: 1 h (Normal Rat [2]; 1 h, mean ± spread): 3.3 ± 1.7 mL
- Total Urine Volume (ml) at: 2 h (Normal Rat [2]; 2 h): 3.3 ± 1.7 mL
- Total Urine Volume (ml) at: 3 h (Normal Rat [2]; 3 h): 5.0 ± 0.6 mL

Structure (SMILES): NS(=O)(=O)c1cc(C(=O)OCC(=O)N2CCC[C@@H]2CO[N+](=O)[O-])c(NCc2ccco2)cc1Cl
- melting point: 64 to 66 °C

Structure (SMILES): NS(=O)(=O)c1cc(C(=O)OCC(=O)N2CCC(CO[N+](=O)[O-])CC2)c(NCc2ccco2)cc1Cl
- melting point: 115 to 117 °C

Structure (SMILES): CCN(CCO[N+](=O)[O-])C(=O)COC(=O)c1cc(S(N)(=O)=O)c(Cl)cc1NCc1ccco1
- melting point: 60 to 62 °C

Structure (SMILES): NS(=O)(=O)c1cc(C(=O)OCC(=O)NC[C@H](CO[N+](=O)[O-])O[N+](=O)[O-])c(NCc2ccco2)cc1Cl [Example 12, (N-((2R)-2,3-Bis(nitrooxy)propyl)carbamoyl)methyl4-chloro-2-((2-furylmethyl)amino)-5-sulfamoylbenzoate]
- melting point: 143 to 153 °C (dec.)
- Total Urine Volume (ml) at: 0.5 h (Normal Rat [1]): 4.2 ± 0.4 mL
- Total Urine Volume (ml) at: 1 h (Normal Rat [1]): 5.3 ± 0.5 mL
- Total Urine Volume (ml) at: 2 h (Normal Rat [1]): 6.2 ± 0.5 mL
- Diuresis in the rat (Normal Rat [1]; rat, intravenous, 3 mg/kg equivalent): elicits diuresis

Reference: patent publication US7282519B2 (priority 2003, dated 2007)
